Key:
[1] = system: purified mouse liver mitochondria; test: Flow cytometric analysis of mitochondrial transmembrane potential (JC-1) on isolated mitochondria; conditions: for changes of JC-1 fluorescence (ΔΨm): real-time, 20 µM mClCCP, 30 µM Ca2+ or alamethicin
Experimental: (§1) Liver mitochondria were isolated from 3-4 weeks old Balb-c mice (IFFA CREDO, Saint Germain sur l'Arbresle, France). Animals were fasted overnight before being killed by […] dislocation. Liver mitochondria were prepared as described (Jacotot, 2000). All steps were carried out at 4°C. Finally, the organelles were resuspended in 'swelling buffer', composed by 200 mM sucrose, 5 mM succinate, 10 mM Tris-MOPS (pH 7.4), 1 mM H3PO4, 2 µM Rotenone, and 10 µM EGTA at pH=7.4. Spectrophotometric and flow cytometric analyses were performed in this buffer. The protein content of isolated mitochondria was determined by the Bradford assay.
Mitochondrial transmembrane potential (ΔΨm) was assessed by 5,5',6,6',-tetracholoro-1,1,3,3'-tetraethylbenzimidazolyl carbocyanine iodide (JC-1, Molecular Probes) incorporation. This potential-sensitive cationic dye accumulates in the mitochondrial matrix according to the Nernst equation (Reers et al., 1991). JC-1 green fluorescence, associated with JC-1 monomers was collected in the FL-1 channel. JC-1 orange fluorescence, associated with the formation of J-aggregates was collected in the FL-2 channel (585 +/- 21 nm) (Reers et al, 1991). Both fluorescences were recorded in logarithmic amplifier mode, using the PMT at a voltage adjusted to 907 and 622 respectively. Spectral overlap was avoided by adjusting compensation network as follows: FL1 - 18.5% FL2 and FL2 - 25.4% FL1. The JC-1 orange green fluorescence ratio was calculated with the FCS Assistant software.
Fixed-time detection of ΔΨM was performed on mitochondrial samples containing 10 µg proteins in 100 µl of swelling buffer. Samples were submitted to MPT-inducing drugs for 15 min at 25°C, and JC-1 was added at 800 nM for 15 min at 37°C in the dark. Samples were immediately analyzed by flow cytometry, and data from 20.000 mitochondria (gated on FSC-SSC parameters) were recorded. This assay permitted to quantify the percentage of highly energized mitochondria (with both orange and green fluorescence) and depolarized mitochondria (with green fluorescence only) as depicted in part C2 of Fig.1.
Real-time monitoring of ΔΨm was performed on mitochondrial samples containing 1.5 µg proteins in 400 µl of swelling buffer. JC-1 loading was performed at 400 nM in for 15 minutes at 37°C. […] Then drugs were added to the sample, and ΔΨm variations were recorded for the following 16 minutes. Depolarization curves were drawn as previously indicated for swelling curves; the time scale was divided into discrete periods of 1 minute and the mean of JC-1 orange and JC-1 green fluorescence of the corresponding mitochondrial subsets was calculated by the CellQuest Pro software and exported into the Microsoft Excel software.

[2] = system: purified mouse liver mitochondria; test: Flow cytometric (real-time FCM) analysis of mitochondrial morphology (FSC/SSC) on isolated mitochondria; conditions: for changes of mitochondrial size (FSC) and structure (SSC): 1-30 µM Calcium, 20 µM CCCP or alamethicin added to isolated mitochondria; for effect on alamethicin induced MMP: pre-treatment with inhibitor, then alamethicin (5 µg/ml)
Experimental: as §1
Fluorescence-activated flow cytometry was performed using a 3-color FACSCalibur cytometer equipped with a 15 mW air-cooled 488 nm argon laser (Becton Dickinson, San Jose, CA). Mitochondria analyses were performed after appropriate settings of the Forward angle light scatter (FSC) - Side angle light scatter (SSC) detectors (see Fig. 1). Discrimination between mitochondria and cellular debris and noise background was performed by an appropriate gating on FSC-SSC scatter plots (Fig. 1)(Radcliff G, Jaroszeski MJ 1998 Methods Mol Biol 91:1-24 Basics of flow cytometry). Systematic confirmation of the validity of this gating was obtained by a labeling of mitochondria with the ΔΨm-insensitive mitochondrial dye MitoTracker® Green (MTG, Molecular Probes, Eugene, OR) (Jacotot et al., 2001). Briefly mitochondria (1.5 µg proteins) were respuspended in 400 µl swelling buffer containing 200 nM MTG for 15 min at room temperature. The organelles were immediately analyzed on the cytometer with the CellQuest Pro software (Becton Dickinson). MTG fluorescence was collected in the FL-1 channel (530 +/- 15 nm) and analyzed in logarithmic amplifier mode, using the PMT at a voltage adjusted to 907. Data from 20,000 gated mitochondria were recorded and analyzed.
Mitochondrial size was analyzed through the light scattered by the organelles at low angle using the Forward scatter (FSC) photodiode. Signals were collected using the E-00 setting, with a logarithmic amplification gain of 5.41. Mitochondrial structure was evaluated by the light scattered in the perpendicular direction. It was assessed by the sensitive Side scatter (SSC) photomultiplier tube (PMT), using a voltage of 581, and a linear amplification gain adjusted to 4.27. The morphological changes related to swelling of purified mitochondria were monitored by the increase in mitochondrial size (FSC) and the decrease in the organelle structure (SSC) using the CellQuest Pro software. The FSC/SSC ratio was calculated by the FCS Assistant software and permitted to integrate both variations in size and structure into only one parameter.
Fixed-time analyses were performed on mitochondrial samples containing 10 µg proteins in 100 µl of swelling buffer. Samples were submitted to MPP-inducing reagents for 30 min at 25°C. Samples were immediately analyzed by flow cytometry, and data from 20.000 mitochondria were recorded. The percentage of specific swelling determined on forward scatter was calculated as follows; (FSCCa2+ - FSCReagent ) x 100 / (FSCCa2+ - FSCCo), were FSCCa2+, FSCReagent and FSCCo correspond to the FSC values obtained for CaCl2- treated, reagent - treated and untreated mitochondria respectively. Similar calculation was used to determine the percentage of specific swelling on SSC and FSC/SSC ratio values.
Real-time experiments were performed on mitochondrial samples containing 1.5 µg proteins in 800 µl (= 2 ng / […]l) of swelling buffer. Samples were acquired on the flow cytometer for 5 minutes to record basal morphological criteria. Then reagents were added to samples, and variations in light scattering were recorded for the following 15 minutes. The sample flow rate was settled to 12 µl +/- 3 µl / min for both fixed- and real-time analyses. […]

[3] = 50 µM BA or 10 µM CsA 5 minutes, then 30 min Ca2+ (30 µM)

| Compound | changes of JC-1 fluorescence (ΔΨm) [1] | changes of mitochondrial size (FSC) and structure (SSC) [2] | effect on alamethicin induced MMP [2] | effect on Ca2+ induced ΔΨm loss [1, 3] | effect on Ca2+ induced SSC decrease [2, 3] |
| --- | --- | --- | --- | --- | --- |
| N#CC(C#N)=NNc1cccc(Cl)c1 [CCCP, carbonyl cyanide meta-chlorophenylhydrazone] | rapid decrease in JC-1 orange fluorescence and a slow decrease in monomeric JC-1 green fluorescence | low but significant granularity (SSC) decrease without detectable size (FSC) changes | – | – | – |
| [Ca+2].[Cl-].[Cl-] [Calcium, CaCl2] | a decrease in JC-1 orange fluorescence and a significant increase in JC-1 green fluorescence | dose-dependent SSC decrease and FSC increase | – | – | – |
| N.N.N.N.N.N.N.N.N.N.N.N.N.N.[Cl-].[Cl-].[Cl-].[Cl-].[Cl-].[Cl-].[O-2].[O-2].[Ru+3].[Ru+3].[Ru+4] [Ruthenium red] | – | – | not affected | – | – |
| CO[C@H](C/C=C\C=C\CC/C=C/C[C@H](C)/C=C/C(=C\C(=O)O)CC(=O)O)/C(C)=C\C=C(/C)C(=O)O [bongkrekic acid] | – | – | not affected | strongly reduces | partly affect |
| alamethicin | a decrease in JC-1 orange fluorescence and a significant increase in JC-1 green fluorescence | simultaneous FSC increase and SSC decrease | – | – | – |

Source: EP1925625A2, “Method for screening modulators of mitochondrial functionning and new modulators obtained” (Theraptosis S.A., priority 2002, dated 2008)
